The structures appear in SMILES notation.

The series in a line: gradient 5% acetonitrile 3 min, to 50% in 2 min, to 85% in 15 min, held 3 min, 100 µL/min. The following applies: column: Zorbax Extend-C18 2.1 x 50 mm; eluents: water / acetonitrile, 0.1% formic acid. Put shortly:
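Retention times of pure standards were taken from adduct peaks that were selected by computer and manually inspected. Over 3 months, mixtures of ~100 molecules were run by HPLC–quadrupole time-of-flight mass spectrometry in positive and negative ionization mode. The Zorbax Extend-C18 column (2.1 × 50 mm, 1.8 μm) ran at 100 μL/min in water and acetonitrile, each containing 0.1% formic acid, with 40 μL dead volume and 900 μL dwell volume.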
In turn, `CSc1ccc(-c2nc3cnccn3c2Nc2ccccc2)cc1` had an RP-LC retention time of 930 s.

As to `c1ccc(Cn2c(-c3ccc(OC[C@H](C4CCNCC4)n4c(-c5ccccc5)nc5ccccc54)cc3)nc3ccccc32)cc1`, the RP-LC retention time was 692 s.

On to `COc1ccc(NC(=O)c2c(C)oc3nc(C)nc(N4CCOCC4)c23)cc1OC`, for which the RP-LC retention time came to 711 s.

As to `O=S(=O)(c1cc(-c2nnc(-c3ccc(F)cc3)o2)ccc1Cl)N1CCOCC1`, the RP-LC retention time worked out at 984 s.

In turn, `O=C(Nc1ccc(N2CCOCC2)c(Br)c1)c1ccc2c(c1)OCCCO2` registered an RP-LC retention time of 959 s.

`Cc1cc(C)c(CN2CCC(N3CCN(Cc4nc(C)no4)C3=O)C2)c(C)c1` (stereo not given) showed an RP-LC retention time of 672 s.

On to `CCN1C(=O)COc2cc(-c3noc(C(=O)NC4CCCCCC4)n3)ccc21`, for which the RP-LC retention time amounted to 1050 s.

Compound `O=C(NCc1cccs1)c1nnc(-c2ccc(S(=O)(=O)N3CCCCC3)cc2)o1` returned an RP-LC retention time of 939 s.

Regarding `O=S(=O)(Nc1ccc(-c2cn3ccccc3n2)cc1)c1ccccc1`, the RP-LC retention time amounted to 600 s.

`COc1ccc(-c2cc(N3CCC(NC(=O)c4ccc5c(c4)OCO5)C3)n[nH]2)cc1` (stereo not given) registered an RP-LC retention time of 690 s.

For `COc1cccc(CNC2CCN(c3ccc(C(=O)NC4CC4)cn3)C2)c1` (stereo not given), the RP-LC retention time was found to be 547 s.

For `CCCn1cc(S(=O)(=O)Nc2ccc(C)c(C)c2)c2cccnc21`, the RP-LC retention time was determined as 960 s.

`Cc1[nH]c2ccc(-c3nnc(SCC(=O)NCc4nc5ccccc5[nH]4)o3)cc2c1C` displayed an RP-LC retention time of 642 s.

In turn, `CC1(C)CC(=O)c2cn(-c3ccccc3)c(=O)c(C(=O)Nc3ccccc3F)c2C1` came in with an RP-LC retention time of 1040 s.

`Cc1nnc(C2CCCCCN2C(=O)Cc2c(C)noc2C)o1` (stereo not given) displayed an RP-LC retention time of 658 s.

The compound `COc1ccccc1-c1noc(Cn2ncn3nc(-c4ccccc4Cl)cc3c2=O)n1` yielded an RP-LC retention time of 1040 s.

As for `CC(C(=O)N1CCC(N2CCCCC2)CC1)C1CCN(S(=O)(=O)c2ccc(Cl)s2)CC1` (stereo not given), the RP-LC retention time was 681 s.

Turning to `O=C(Cn1cnc2c(sc3nc(-c4ccccc4)ccc32)c1=O)NCCC1=CCCCC1`, the RP-LC retention time stood at 1090 s.

For `COC(=O)C1=C(N)OC2=C(C(=O)CC(C)(C)C2)C1c1cccs1` (stereo not given), the RP-LC retention time was found to be 821 s.

Regarding `Cc1cccc(C)c1Nc1c(-c2ccc(N3CCOCC3)cc2)nc2cnc(Br)cn12`, the RP-LC retention time was 1100 s.

`CN1C(=O)NC2NCN(C)C2C1=O` (stereo not given): the RP-LC retention time was 576 s.

In turn, `COc1ccc(C(=O)N2CCC3(CC2)NC(=O)c2ccc(F)cc2N3C)c(OC)c1` registered an RP-LC retention time of 715 s.

Compound `O=S(=O)(c1ccc(Cl)c(-c2nnc(-c3ccccc3)o2)c1)N1CCCCC1` showed an RP-LC retention time of 1130 s.

In turn, `CC(=O)N1CCc2c(-c3ccccc3)cccc2[C@H]1C` registered an RP-LC retention time of 976 s.

Take `CC(C)N1C(=O)C(C)(C(=O)N2CCN(c3ccccc3F)CC2)Oc2cccnc21` (stereo not given): the RP-LC retention time was determined as 1130 s.

In turn, `Cc1cc(C)n(CCNC(=O)C2(c3cccs3)CCCC2)n1` showed an RP-LC retention time of 736 s.

In the case of `CCOc1ccc(CC(=O)N2CCC3(CC2)N=C(c2ccccc2)NO3)cc1`, the RP-LC retention time amounted to 780 s.

Compound `O=C(NCCN1CCCCC1)C1CN(S(=O)(=O)c2cccnc2)CC12CCCCC2` (stereo not given) came in with an RP-LC retention time of 613 s.

Turning to `CN1C2CCC1CC(OC(c1ccccc1)c1ccc(Cl)cc1)C2` (stereo not given), the RP-LC retention time was 862 s.

Compound `CCCS(=O)(=O)c1nc2ccc(NS(=O)(=O)Cc3cc(C)ccc3C)cc2s1` showed an RP-LC retention time of 1040 s.

Take `COc1ccccc1CNC(=O)c1cn(-c2cc(N3CCOCC3)ncn2)cn1`: the RP-LC retention time was determined as 757 s.

Turning to `Cc1cc(C(=O)NCc2ccccc2)nc2cc(-c3cccs3)nn12`, the RP-LC retention time was 1080 s.

Take `CCc1ccc(NS(=O)(=O)c2cc(-c3[nH]ncc3C(=O)N3CCCCC3)oc2C)cc1`: the RP-LC retention time worked out at 822 s.

Compound `Cc1ccn2cc(CC(=O)Nc3ccccc3)nc2c1` displayed an RP-LC retention time of 588 s.

`CN(CC1CCOCC1)S(=O)(=O)c1ccccc1F` showed an RP-LC retention time of 804 s.

`CN(C)c1ccc(CNC(=O)C2CCCN(c3nccnc3Sc3ccccc3)C2)cc1` (stereo not given): the RP-LC retention time stood at 744 s.

Turning to `CCn1ccc2sc(C)c(C(=O)NCc3cc(F)ccc3F)c2c1=O`, the RP-LC retention time was found to be 835 s.

Take `CCCS(=O)(=O)NCCn1c(C)cnc1-c1ccccc1`: the RP-LC retention time was determined as 566 s.

The compound `O=C(Cn1c(-c2cnccn2)nc2ccccc21)N1CCN(c2ccccc2F)CC1` registered an RP-LC retention time of 750 s.

`O=c1n(CC2CC2)nc2n1CCC(NS(=O)(=O)Cc1ccccc1F)CC2` (stereo not given) gave an RP-LC retention time of 706 s.

Compound `COCCN(CC(=O)N1CCc2sccc2C1COc1cccc(F)c1)C(=O)CC(C)C` (stereo not given) displayed an RP-LC retention time of 976 s.

`COc1cccc(-c2nnc(Cc3nc(-c4cccc(Br)c4)no3)o2)c1` gave an RP-LC retention time of 1090 s.

Consider `O=C1NCCCn2cc(S(=O)(=O)Nc3ccc(N4CCOCC4)cc3)cc21`, for which the RP-LC retention time was determined as 596 s.

Compound `O=C(NCc1csc(-c2ccccc2)n1)C1CCN(C(=O)Nc2ccc(F)cc2F)CC1` gave an RP-LC retention time of 784 s.

The compound `CCOC(=O)c1cc(C)nc2c1c(=O)n(Cc1ccccc1F)c(=O)n2C` showed an RP-LC retention time of 1070 s.

For the compound `O=c1c2nnc3ccnn3c2ccn1CCc1c[nH]c2ccccc12`, the RP-LC retention time worked out at 700 s.

In turn, `O=C(NCCc1c[nH]c2ccccc12)c1nc[nH]c1C(=O)NCc1ccccn1` came in with an RP-LC retention time of 641 s.

`Cc1ccc(-c2csc(Nc3ccc(F)cn3)n2)cc1C`: the RP-LC retention time amounted to 1180 s.

Consider `Cc1ccc(C)c(OCC(O)Cn2c(C3CC3)nc3ccccc32)c1` (stereo not given), for which the RP-LC retention time was found to be 731 s.

The compound `O=C(NCC1(c2ccccc2)CCOCC1)C(=O)Nc1cc2c3c(c1)CCC(=O)N3CCC2` came in with an RP-LC retention time of 762 s.

Compound `CCOC(=O)c1nnc2c(-c3ccccc3)c(C)nn2c1N` returned an RP-LC retention time of 828 s.

Compound `CCOc1ccc(NC(=O)c2cnc(N3CCSCC3)nc2N)cc1` yielded an RP-LC retention time of 712 s.

In the case of `O=C(NC1CC1)C1CCN(C(=O)c2ncn3c2COC(c2ccc(F)cc2)C3)CC1` (stereo not given), the RP-LC retention time was 630 s.

For the compound `Cc1nc(OCC(=O)Nc2cccc(C(F)(F)F)c2)c2ccccc2n1`, the RP-LC retention time worked out at 817 s.

`Cc1noc(CNC(=O)C2CCN(C(=O)c3snnc3C)CC2)n1`: the RP-LC retention time came out at 563 s.

In turn, `CCc1ccc(CNC(=O)CN2CCc3ccccc3C2C(=O)N2CCCCC2)cc1` (stereo not given) showed an RP-LC retention time of 965 s.

`O=C(Cn1cnc2c(nc3n2CCCCC3)c1=O)Nc1ccc2c(c1)OCCO2` had an RP-LC retention time of 659 s.

For `O=C(COc1ccc(NC(=O)C2CC2)cn1)NCc1cc(F)cc(F)c1`, the RP-LC retention time worked out at 754 s.

Consider `CC(C)n1cnc2c(C(=O)N[C@H]3CN4CCC3CC4)cc(Cl)cc21`, for which the RP-LC retention time is 692 s.

`NCCC1CCN(C(=O)Nc2cccc(F)c2)CC1` registered an RP-LC retention time of 595 s.

In turn, `COc1ccc(C(=O)N2CC(n3cc(COCC4CC4)nn3)C2)c(OC)n1` showed an RP-LC retention time of 718 s.

Consider `CCN1C(=O)c2cccnc2Sc2cc(NC(=O)c3ccc(C(C)C)cc3)ccc21`, for which the RP-LC retention time worked out at 998 s.

Turning to `CC1CCC(NC(=O)c2nnc(-c3ccc(S(=O)(=O)N4CCCCC4)cc3)o2)CC1` (stereo not given), the RP-LC retention time amounted to 1110 s.

The compound `CCN(Cc1ccc(OC)cc1)Cc1cc(=O)n2cc(C)ccc2n1` yielded an RP-LC retention time of 572 s.

`CC(C)C(=O)N1CCC(c2nc(CNC(=O)C3CCC3)cs2)CC1` gave an RP-LC retention time of 662 s.

With `CCOC(=O)c1ccc(NC(=O)NCC(c2cccnc2)c2c[nH]c3ccccc23)cc1` (stereo not given), the RP-LC retention time worked out at 814 s.

Turning to `COc1ccccc1OCC1c2ccsc2CCN1C(=O)CN(CC1CC1)C(=O)NC(C)C` (stereo not given), the RP-LC retention time was determined as 919 s.

Take `COc1cccc(CNC(=O)C2(C)CCCN(C(=O)Nc3cccc(Cl)c3C)C2)c1` (stereo not given): the RP-LC retention time came out at 982 s.

Compound `COc1cc(-c2noc(Cn3ncn4nc(-c5cc(C)ccc5C)cc4c3=O)n2)cc(OC)c1OC` registered an RP-LC retention time of 1140 s.

Regarding `COc1ccc(OCc2nc(-c3ccc(NS(C)(=O)=O)cc3)no2)cc1`, the RP-LC retention time was 868 s.

In turn, `O=C(CN1CCc2ccccc2C1C(=O)N1CCCC1)Nc1cccc(Br)c1` (stereo not given) had an RP-LC retention time of 921 s.

Turning to `NC(=O)COC1CCC12CCN(C(=O)C1CCCCC1)CC2` (stereo not given), the RP-LC retention time amounted to 715 s.

In the case of `CCCc1cc(C2CCCN2C(=O)Nc2cc(C)ccc2OC)no1` (stereo not given), the RP-LC retention time was determined as 1020 s.

As to `O=C(NC1CCCC1)c1cn(-c2ncccc2-c2nc(-c3ccccc3)no2)cn1`, the RP-LC retention time is 867 s.

As for `COc1cccc(CNC(=O)Cn2nc3cc(-c4ccncc4)nc(C)n3c2=O)c1`, the RP-LC retention time came out at 640 s.

Consider `COc1ccc(-c2nnc(N3CCC(C(=O)NCCN4CCOCC4)CC3)o2)cc1`, for which the RP-LC retention time worked out at 889 s.

Compound `Nc1cc(C2CCN(C(=O)NCCc3ccccc3)CC2)no1` registered an RP-LC retention time of 668 s.

`Cc1cccc(NC(=O)CN2C(=O)CC(C)S(=O)(=O)c3ccccc32)c1` (stereo not given): the RP-LC retention time was found to be 768 s.

The compound `COc1ccc(CCS(=O)(=O)NCC2CCN(Cc3ccccc3SC)CC2)cc1` registered an RP-LC retention time of 598 s.

`O=C(NCc1ccccc1Cl)c1ccc(=O)n(CCN2CCOCC2)c1` had an RP-LC retention time of 609 s.

These data come from the METLIN SMRT retention time set (Domingo-Almenara et al. 2019).
